Assay type in all cases: biochemical
Test [1] concerns the target T1, AKR1C3 (Homo sapiens, UniProt P42330).
T1 construct: GST (own knowledge: pGEX vectors encode N-terminal GST); made in house; host or cells: E. coli BL21 DE3 Codon Plus RP, lysate
T1 sequence (P42330 1-323): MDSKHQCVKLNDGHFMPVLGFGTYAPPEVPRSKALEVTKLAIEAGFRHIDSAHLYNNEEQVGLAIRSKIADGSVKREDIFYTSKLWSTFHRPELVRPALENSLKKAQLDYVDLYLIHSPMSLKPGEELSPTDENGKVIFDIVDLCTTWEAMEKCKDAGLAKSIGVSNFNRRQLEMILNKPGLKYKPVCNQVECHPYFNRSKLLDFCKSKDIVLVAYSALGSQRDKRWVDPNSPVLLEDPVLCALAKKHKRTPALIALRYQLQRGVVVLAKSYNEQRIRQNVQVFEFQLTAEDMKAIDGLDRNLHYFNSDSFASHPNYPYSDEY
Description: AKR1C3 enzymatic inhibition assay (∆4-androstene-3,17-dione to testosterone). As to conditions: for IC50: one-site ligand binding fit. The text has this:
(§1) For enzymatic assays and inhibitor testing, all enzymes were cloned into bacterial or mammalian expression vectors. AKR1C3 and the human hydroxysteroid dehydrogenases HSD17B1, HSD17B2, HSD17B4 (SDR domain), HSD17B7, and HSD17B10 were cloned into a pGEX vector as described in [71, 72]. The coding sequences for AKR1C1, AKR1C2, and AKR1C4 were cloned by Gateway technology into the pcDNA3-N-MycDest vector according to the manufacturer’s instructions (Life Technologies, Carlsbad, CA, USA). The p11 plasmid coding for HSD17B14 (S205 variant) was a gift from Udo Opperman SGC Oxford, UK. For assays with HSD17B3, HEK293 cells stably expressing HSD17B3 were used. Enzymes were expressed in E. coli BL21 DE3 or E. coli BL21 DE3 Codon Plus RP (Stratagene, San Diego, CA, USA) or in HEK293 cells as described in [71, 72, 73]. Bacterial and cell pellets were stored at −20 °C and −80 °C, respectively, until use.
(§2) Inhibition assays were carried out as described in [71, 74]. […] For a detailed assay setup, see Supplementary Table S6. The incubation at 37 °C was stopped with 0.21 M ascorbic acid in methanol:acetic acid 99:1 (v:v) after the time needed to convert approximately 30% of the substrate in a control assay with 1% DMSO, without inhibitor candidate. Substrates and products were extracted from the reaction mixture by solid-phase extraction using C18 cartridges (Phenomenex, Aschaffenburg, Germany) and separated by RP–HPLC in a Beckman–Coulter HPLC Gold system, using the Luna 5 µm C18(2), 125 × 4.0 mm column (Phenomenex). The mobile phases used were H2O:ACN (57:43 (v:v); for assays of estrone (E1) to oestradiol (E2), E2 to E1, and ∆4-androstene-3,17-dione to testosterone conversion), H2O:ACN (49:51 (v:v); for assays of progesterone to 20α-hydroxyprogesterone conversion), and H2O:MeOH (35:65 (v:v) for assays of dihydrotestosterone (DHT) to 3α-androstanediol conversion) at a flow rate of 1 mL/min. Radioactivity was detected by online scintillation counting by using a radioactivity monitor (LB506D, Berthold Technologies, Bad Wildbad, Germany). Conversion of substrates to products was determined by integration of the peak area of the substrate and product peaks in percent. For calculation of inhibition, the conversion of control assay (assay without inhibitor) was set to 0% inhibition. All assays were run in triplicates, and mean values ± SD are reported.
For the determination of IC50 values, percent inhibition values were fitted using the Enzyme Kinetics module of SigmaPlot 13.0 and the one-site ligand-binding model according to the formula f = Bmax * abs(x)/(Kd + abs(x)).
(§3) Table S6: Activity assay setup […]
(§4) E1: estrone; E2: 17β-estradiol, A: Δ4-androstene-3,17-dione; T: testosterone, P: progesterone, 20αOHP: 20α-hydroxyprogesterone, DHT: dihydrotestosterone, 3α-Adiol: 3α-androstanediol, NaPi: 100 mM Na-phosphate buffer; PI: C0mplete protease inhibitor (Roche);. E.coli - Expression in E.coli BL21 DE3 Codon Plus RP except E.coli BL21 DE3 […]
(§5) application to antiparasitic and natural product synthesis. Eur J Org Chem […]
(§6) Synthesis of Xanthohumol analogues and discovery of potent thioredoxin reductase inhibitor as potential anticancer agent. J Med Chem 2015, 58,

For test [2], the target named is T2, AKR1C4 (Homo sapiens, UniProt P17516).
T2 construct: Myc (N); expressed in transfected cells; host or cells: HEK293
T2 sequence (P17516 1-323): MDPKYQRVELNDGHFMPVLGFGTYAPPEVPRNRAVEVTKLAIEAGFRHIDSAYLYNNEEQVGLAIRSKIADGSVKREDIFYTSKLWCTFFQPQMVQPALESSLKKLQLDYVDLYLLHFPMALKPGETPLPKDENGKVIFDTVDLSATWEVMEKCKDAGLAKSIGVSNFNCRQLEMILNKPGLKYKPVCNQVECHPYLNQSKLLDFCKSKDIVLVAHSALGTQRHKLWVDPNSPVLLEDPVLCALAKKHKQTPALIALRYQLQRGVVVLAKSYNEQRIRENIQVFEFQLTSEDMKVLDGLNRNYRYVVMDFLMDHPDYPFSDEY
The experiment in a line: AKR1C4 inhibition assay (DHT to 3α-androstanediol). The settings on record: 10 µM compound; mean ± SD.
Excerpt: as §1, §2, §3, §4, §5, §6

For test [3], the target named is T3, HSD17B7 (Homo sapiens, UniProt P56937).
T3 construct: GST (own knowledge: pGEX vectors encode N-terminal GST); made in house; host or cells: E. coli BL21 DE3 Codon Plus RP
T3 sequence (P56937 1-341): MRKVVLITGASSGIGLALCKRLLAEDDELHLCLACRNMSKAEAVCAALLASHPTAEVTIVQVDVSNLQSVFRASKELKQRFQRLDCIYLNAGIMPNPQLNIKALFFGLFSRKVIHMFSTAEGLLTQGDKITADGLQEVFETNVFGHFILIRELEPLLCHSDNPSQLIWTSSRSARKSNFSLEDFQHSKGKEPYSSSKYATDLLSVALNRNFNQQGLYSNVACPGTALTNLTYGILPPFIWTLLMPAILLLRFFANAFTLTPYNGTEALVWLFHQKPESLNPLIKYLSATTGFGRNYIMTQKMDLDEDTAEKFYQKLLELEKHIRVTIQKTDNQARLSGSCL
The experiment in a line: HSD17B7 inhibition assay (estrone to oestradiol). As to conditions: 10 µM compound; mean ± SD.
Excerpt: as §1, §2, §3, §4, §5, §6

For test [4], the target named is T4, HSD17B10 (Homo sapiens, UniProt Q99714).
T4 construct: GST (own knowledge: pGEX vectors encode N-terminal GST); made in house; host or cells: E. coli BL21 DE3 Codon Plus RP
T4 sequence (Q99714 1-261): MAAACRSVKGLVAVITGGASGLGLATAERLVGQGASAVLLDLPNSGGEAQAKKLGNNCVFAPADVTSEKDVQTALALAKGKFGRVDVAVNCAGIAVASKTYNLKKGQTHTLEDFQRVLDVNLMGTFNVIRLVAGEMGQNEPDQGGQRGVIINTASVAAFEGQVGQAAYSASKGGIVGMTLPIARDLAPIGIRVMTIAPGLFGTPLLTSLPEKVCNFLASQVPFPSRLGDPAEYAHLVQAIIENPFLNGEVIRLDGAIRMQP
Description: HSD17B10 inhibition assay (oestradiol to estrone). The settings on record: 10 µM compound; mean ± SD.
Excerpt: as §1, §2, §3, §4, §5, §6

Where [5] appears, read: 10 µM compound, ∆4-androstene-3,17-dione reduction, triplicates, mean ± SD, 10 µM.
[6] abbreviates: ∆4-androstene-3,17-dione reduction, mean ± SD.
Setting [7] is: 10 µM compound, ∆4-androstene-3,17-dione reduction, triplicates, mean ± SD.

Several values for one entry are separate records, joined by “and”; a condition that tells them apart may be missing. Equal entries are not always repeated.

For orientation: IC50 means the midpoint of a concentration-inhibition curve. The low end stands for greater potency in that assay, the high end for weaker potency in that assay. With `COc1ccc(/C=C/C(=O)c2c(O)cc(O)cc2OC)cc1` [Compound 18], the “AKR1C3 Inhibition at 10 µM [%]” value in test [1] (setting [5]) was determined as 47.3 ± 6.4%. This molecule gave an IC50 in test [1] (setting [6]) of 11900 ± 2030 nM. Besides, the “Inhibition of AKR1C4 at 10 µM in %” value in test [2] came out at 25.0 ± 1.5%. In addition, in test [3], the “Inhibition of HSD17B7 at 10 µM in %” value was determined as 6.5 ± 6.7%. Moreover, the “Inhibition of HSD17B10 at 10 µM in %” value in test [4] was -0.5 ± 6.5%.

Regarding `COc1ccc(/C=C/C(=O)c2c(O)cc(O)cc2O)cc1` [Compound 19], the “AKR1C3 Inhibition at 10 µM [%]” value in test [1] (setting [5]) was > 75% and 78.1 ± 2.7%. Moreover, the IC50 in test [1] (setting [6]) was determined as 2360 ± 540 nM. Also, in test [2], the “Inhibition of AKR1C4 at 10 µM in %” value was 93.3 ± 0.7% and > 75%. Further, the “Inhibition of HSD17B7 at 10 µM in %” value in test [3] was found to be 4.6 ± 4.4%. In test [4], the “Inhibition of HSD17B10 at 10 µM in %” value was 2.2 ± 2.6%.

Turning to `Cc1cccc(/C=C/C(=O)c2c(O)cc(O)cc2O)c1` [Compound 20], the “AKR1C3 Inhibition at 10 µM [%]” value in test [1] (setting [5]) was > 75% and 89.2 ± 6.3%. In test [1] (setting [6]), this molecule came in with an IC50 of 1940 ± 320 nM. Further, the “Inhibition of AKR1C4 at 10 µM in %” value in test [2] was 79.6 ± 0.2% and > 75%. Further, the “Inhibition of HSD17B7 at 10 µM in %” value in test [3] was 3.8 ± 3.5%. For the same molecule, the “Inhibition of HSD17B10 at 10 µM in %” value in test [4] is on record as -2.5 ± 0.7%.

`Cc1ccc(/C=C/C(=O)c2c(O)cc(O)cc2O)cc1` [Compound 21]: the “AKR1C3 Inhibition at 10 µM [%]” value in test [1] (setting [5]) was > 75% and 87.9 ± 4.9%. Also, in test [1] (setting [6]), the IC50 came to 5180 ± 1640 nM. In addition, in test [2], the “Inhibition of AKR1C4 at 10 µM in %” value was 91.6 ± 1.5% and > 75%. Besides, the “Inhibition of HSD17B7 at 10 µM in %” value in test [3] came to 6.8 ± 4.7%. The “Inhibition of HSD17B10 at 10 µM in %” value in test [4] was found to be 8.0 ± 6.5%.

One may read the inhibition as the percentage by which the read-out fell short of the control. Read a high inhibition as a response far below the control. In the case of `O=C(/C=C/c1ccc(Cl)cc1Cl)c1c(O)cc(O)cc1O` [Compound 23, 2,4-dichloro-2′,4′,6′-trihydroxychalcone], the inhibition at 10 µM in test [1] (setting [7]) was found to be 90.9 ± 4.6%; in test [2], 97 ± 0.9%; in test [3], 9.9 ± 4.7%; in test [4], 5.2 ± 3.8%. Also, the “Fold more active than natural chalcone 18 (AKR1C3)” value in test [1] (compared with chalcone 18) stood at 10 fold. In test [1] (setting [6]), this molecule displayed an IC50 of 1080 ± 270 nM.

As for `COc1cc(O)cc(O)c1C(=O)/C=C/c1ccc(Cl)cc1Cl` [Compound 25], the “AKR1C3 Inhibition at 10 µM [%]” value in test [1] (setting [7]) is reported as 33.3 ± 6.0%. In addition, in test [2], the “Inhibition of AKR1C4 at 10 µM in %” value is recorded as 41.6 ± 1.8%. In addition, in test [3], the “Inhibition of HSD17B7 at 10 µM in %” value was 37.7 ± 11.4%. Moreover, the “Inhibition of HSD17B10 at 10 µM in %” value in test [4] was -0.5 ± 7.3%.

Values taken from publication PMC8876231, “Analogues of Natural Chalcones as Efficient Inhibitors of AKR1C3” (Metabolites, 2022).
